The text below walks through data of US8906929B2, “Inhibitors of human immunodeficiency virus replication” (priority 2012, dated 2014).

In the first assay the test system is recombinant NL-Rluc virus. Nature of the assay: Inhibition of HIV replication (NL-RLuc virus in MT-2 cells, luciferase readout). Type of assay: cell-based. The note with it: 5 days of incubation, 10% FBS.
A word on the EC50: it is the midpoint of the concentration-response curve. Regarding `Cc1nc2cc3nn2c(c1[C@H](OC(C)(C)C)C(=O)O)-c1ccc2c(c1)C(CCCCCc1ccccc1-c1cccc-3c1)CCO2` (single isomer, unassigned) [Example 8], the EC50 worked out at 51 nM.

For `Cc1nc2cc3nn2c(c1[C@H](OC(C)(C)C)C(=O)O)-c1ccc2c(c1)C(CCCCCc1ccccc1-c1cccc-3c1)CCO2` (single isomer, unassigned) [Example 9], the concentration for a half-maximal effect (EC50) was 3680 nM.

As for `Cc1nc2cc3nn2c(c1[C@H](OC(C)(C)C)C(=O)O)-c1ccc2c(c1)C(CCCCc1ccccc1-c1cccc-3c1)CCO2` (single isomer, unassigned) [Example 10], the EC50 was determined as 237 nM.

As for `Cc1nc2cc3nn2c(c1[C@H](OC(C)(C)C)C(=O)O)-c1ccc2c(c1)C(CCCCc1ccccc1-c1cccc-3c1)CCO2` (single isomer, unassigned) [Example 11], the EC50 is 1270 nM.

Turning to `Cc1ccc2c(c1)-c1cccc(c1)-c1cc3nc(C)c([C@H](OC(C)(C)C)C(=O)O)c(n3n1)N1CCC(C)(CC1)OCCCC(C)C(C)O2` (single isomer, unassigned) [Example 92], the EC50 amounted to 968 nM.

Consider `Cc1ccc2c(c1)-c1cccc(c1)-c1cc3nc(C)c([C@H](OC(C)(C)C)C(=O)O)c(n3n1)N1CCC(C)(CC1)OCCCC(C)C(C)O2` (single isomer, unassigned) [Example 93], for which the EC50 stood at 95 nM.

Turning to `Cc1ccc2c(c1)-c1cccc(c1)-c1cc3nc(C)c([C@H](OC(C)(C)C)C(=O)O)c(n3n1)N1CCC(C)(CC1)OCCCC(C)C(C)O2` (single isomer, unassigned) [Example 94], the concentration giving a half-maximal response (EC50) came to 35 nM.

With `Cc1ccc2c(c1)-c1cccc(c1)-c1cc3nc(C)c([C@H](OC(C)(C)C)C(=O)O)c(n3n1)N1CCC(C)(CC1)OCCCC(C)C(C)O2` (single isomer, unassigned) [Example 95], the EC50 came to 36 nM.

Consider `Cc1ccc2c(c1)-c1cccc(c1)-c1cc3nc(C)c([C@H](OC(C)(C)C)C(=O)O)c(n3n1)N1CCC(C)(CC1)OCCCC(C)CO2` (single isomer, unassigned) [Example 104], for which the EC50 came to 26 nM.

The same assay, now with this note: Human immunodeficiency virus 1, MT2, 120 h, 5 days of incubation, 10% FBS.
Consider `Cc1nc2cc3nn2c(c1[C@H](OC(C)(C)C)C(=O)O)-c1ccc2c(c1)[C@H](CCCCOc1ccccc1-c1cccc-3c1)CCO2` (single isomer, unassigned) [Example 12], for which the half-maximal effective concentration (EC50) was 7 nM.

Take `Cc1nc2cc3nn2c(c1[C@H](OC(C)(C)C)C(=O)O)-c1ccc2c(c1)[C@@H](CCCCOc1ccccc1-c1cccc-3c1)CCO2` (single isomer, unassigned) [Example 13]: the EC50 was 216 nM.

On to `Cc1nc2cc3nn2c(c1[C@H](OC(C)(C)C)C(=O)O)-c1ccc2c(c1)[C@@H](CC=CCOc1ccccc1-c1cccc-3c1)CCO2` (single isomer, unassigned) [Example 14], for which the EC50 stood at 383 nM.

For the molecule `Cc1nc2cc3nn2c(c1[C@H](OC(C)(C)C)C(=O)O)-c1ccc2c(c1)[C@H](CC=CCOc1ccccc1-c1cccc-3c1)CCO2` (single isomer, unassigned) [Example 15], the EC50 came out at 4 nM.

For `Cc1nc2cc3nn2c(c1[C@H](OC(C)(C)C)C(=O)O)N1CCC(C)(CC1)OCC=C[C@@H](C)Oc1ccccc1-c1cccc-3c1` (single isomer, unassigned) [Example 22], the EC50 stood at 36 nM.

Consider `Cc1ccc2c(c1)-c1cccc(c1)-c1cc3nc(C)c([C@H](OC(C)(C)C)C(=O)O)c(n3n1)N1CCC(C)(CC1)OCCCC(C)CO2` (single isomer, unassigned) [Example 103], for which the EC50 amounted to 25 nM.

Take `Cc1nc2cc3nn2c(c1[C@H](OC(C)(C)C)C(=O)O)-c1ccc2c(c1Cl)N(C/C=C\CCc1cccc(c1)-c1cccc-3c1)CCO2` [Example 1, (2S)-2-(tert-Butoxy)-2-[(22Z)-32-chloro-4-methyl-28-oxa-5,7,8,25-tetraazaheptacyclo[23.6.2.1^6,^9.1^10,^14.1^15,^19.0^2,^7.0^29,^33]hexatriaconta-1(31),2,4,6(36),8,10(35), 11,13,15(34), 16,18,22,29,32-tetradecaen-3-yl]acetic acid]: the EC50 came to 853 nM.

As to `Cc1nc2cc3nn2c(c1[C@H](OC(C)(C)C)C(=O)O)-c1ccc2c(c1Cl)N(C/C=C/CCc1cccc(c1)-c1cccc-3c1)CCO2` [Example 2, (2S)-2-(tert-Butoxy)-2-[(22E)-32-chloro-4-methyl-28-oxa-5,7,8,25-tetraazaheptacyclo[23.6.2.1^6,^9.1^10,^14.1^15,^19.0^2,^7.0^29,^33]hexatriaconta-1 (31), 2,4,6(36),8,10(35), 11, 13, 15(34), 16,18,22,29,32-tetradecaen-3-yl]acetic acid], the EC50 was found to be 722 nM.

Consider `Cc1nc2cc3nn2c(c1[C@H](OC(C)(C)C)C(=O)O)-c1ccc2c(c1Cl)N(CCCCOc1cccc(c1)-c1cccc-3c1)CCO2` [Example 3, (2S)-2-(tert-Butoxy)-2-{32-chloro-4-methyl-20,28-dioxa-5,7,8,25-tetraazaheptacyclo[23.6.2.1^6,^9.1^10,^14.1^15,^19.0^2,^7.0^29,^33]hexatriaconta-1(31), 2,4, 6(36), 8, 10(35), 11, 13, 15 (34), 16,18,29,32-tridecaen-3-yl}acetic acid], for which the EC50 was determined as 418 nM.

Turning to `Cc1nc2cc3nn2c(c1[C@H](OC(C)(C)C)C(=O)O)-c1ccc2c(c1Cl)N(CC=CCCc1ccccc1-c1cccc-3c1)CCO2` [Example 4], the EC50 was determined as 125 nM.

In the case of `Cc1nc2cc3nn2c(c1[C@H](OC(C)(C)C)C(=O)O)-c1ccc2c(c1Cl)N(CCCCCCOc1ccccc1-c1cccc-3c1)CCO2` [Example 5, (2S)-2-(tert-Butoxy)-2-{35-chloro-4-methyl-21,31-dioxa-5,7,8,28-tetraazaheptacyclo[26.6.2.1^6,^9.1^10,^14.0^2,^7.0^15,^200^32,36]octatriaconta-1(34),2,4,6(38),8,10(37), 11, 13, 15 (20), 16,18,32,35-tridecaen-3-yl}acetic acid], the EC50 came to 30 nM.

Turning to `Cc1nc2cc3nn2c(c1[C@H](OC(C)(C)C)C(=O)O)-c1cc2c(cc1F)OCCN2CCCCCc1ccccc1-c1cccc-3c1` [Example 6, (2S)-2-(tert-Butoxy)-2-{32-fluoro-4-methyl-29-oxa-5,7,8,26-tetraazaheptacyclo[24.6.2.1^6,^9.1^10,^14.0^2,^7.0^15,^20.0^30,^34]hexatriaconta-1(32),2,4,6(36),8,10(35), 11, 13, 15(20), 16,18,30,33-tridecaen-3-yl}acetic acid], the EC50 worked out at 54 nM.

Consider `Cc1cc2c3cc1-c1c([C@H](OC(C)(C)C)C(=O)O)c(C)nc4cc(nn14)-c1cccc(c1)-c1ccccc1CCCCCN3CCO2` [Example 7, (2S)-2-(tert-Butoxy)-2-{4,32-dimethyl-29-oxa-5,7,8,26-tetraazaheptacyclo[24.6.2.1^6,^9.1^10,^14.0^2,^7.0^15,^200^30,^34]hexatriaconta-1(32), 2,4,6(36),8,10(35), 11, 13, 15(20), 16,18,30,33-tridecaen-3-yl}acetic acid], for which the EC50 amounted to 3510 nM.

In the case of `Cc1nc2cc3nn2c(c1[C@H](OC(C)(C)C)C(=O)O)-c1cc(F)c2c(c1)N(CCCCCc1ccccc1-c1cccc-3c1)CCO2` [Example 16, (2S)-2-(tert-Butoxy)-2-{31-fluoro-4-methyl-29-oxa-5,7,8,26-tetraazaheptacyclo[24.6.2.1^6,^9.1^10,^14.0^2,^7.0^15,^20.0^30,^34]hexatriaconta-1(32),2,4,6(36),8,10(35), 11, 13, 15(20),16,18,30,33-tridecaen-3-yl}acetic acid], the EC50 was 177 nM.

Consider `Cc1nc2cc3nn2c(c1[C@H](OC(C)(C)C)C(=O)O)-c1ccc2c(c1Cl)N(CCCCCc1ccccc1-c1cccc-3c1)CCO2` [Example 17, (2S)-2-(tert-Butoxy)-2-{33-chloro-4-methyl-29-oxa-5,7,8,26-tetraazaheptacyclo[24.6.2.1^6,^9.1^10,^14.0^2,^7.0^15,^20.0^30,^34]hexatriaconta-1(32),2,4,6(36),8,10(35), 11,13,15(20),16,18,30,33-tridecaen-3-yl}acetic acid], for which the EC50 stood at 145 nM.

With `Cc1nc2cc3nn2c(c1[C@H](OC(C)(C)C)C(=O)O)N1CCC(C)(CC1)OCC=CCCc1ccccc1-c1cccc-3c1` [Example 18, (2S)-2-(tert-Butoxy)-2-[4,27-dimethyl-26-oxa-1,5,7,8-tetraazahexacyclo[25.2.2.1^6,^9.1^10,^14.0^2,^7.0^15,^20]tritriaconta-2,4,6(33),8,10(32),11,13,15(20),16,18,23-undecaen-3-yl]acetic acid], the EC50 was found to be 16 nM.

For the molecule `Cc1nc2cc3nn2c(c1[C@H](OC(C)(C)C)C(=O)O)N1CCC(C)(CC1)OCCCCCc1ccccc1-c1cccc-3c1` [Example 19, (2S)-2-(tert-Butoxy)-2-{4,27-dimethyl-26-oxa-1,5,7,8-tetraazahexacyclo[25.2.2.1^6,^9.1^10,^14. 0^2,^7. 0^15,^20]-tritriaconta-2,4,6(33),8,10(32),11,13,15(20),16,18-decaen-3-yl}acetic acid], the EC50 came to 21 nM.

In the case of `Cc1nc2cc3nn2c(c1[C@H](OC(C)(C)C)C(=O)O)N1CCC(C)(CC1)OC/C=C/COc1ccccc1-c1cccc-3c1` [Example 20, (2S)-2-(tert-Butoxy)-2-[(23E)-4,27-dimethyl-21,26-dioxa-1,5,7,8-tetraazahexacyclo[25.2.2.1^6,^9.1^10,^14.0^2,^7.0^15,^20]tritriaconta-2,4,6(33),8,10(32),11,13,15(20),16,18,23-undecaen-3-yl]acetic acid], the 50% effective concentration (EC50) is 5 nM.

For `Cc1nc2cc3nn2c(c1[C@H](OC(C)(C)C)C(=O)O)N1CCC(C)(CC1)OCCCCOc1ccccc1-c1cccc-3c1` [Example 21, (2S)-2-(tert-Butoxy)-2-{4,27-dimethyl-21,26-dioxa-1,5,7,8-tetraazahexacyclo[25.2.2.1^6,^9.1^10,^14.0^2,^7.0^15,^20]-tritriaconta-2,4, 6(33), 8, 10(32), 11, 13, 15(20),16,18-decaen-3-yl}acetic acid], the EC50 was 7 nM.

With `Cc1nc2cc3nn2c(c1[C@H](OC(C)(C)C)C(=O)O)N1CCC(C)(CC1)OCC=C[C@H](C)Oc1ccccc1-c1cccc-3c1` [Example 23, (2S)-2-(tert-Butoxy)-2-[(22S)-4,22,27-trimethyl-21,26-dioxa-1,5,7,8-tetraazahexacyclo[25.2.2.1^6,^9.1^10,^14.0^2,^7.0^15,^20]tritriaconta-2,4,6(33),8,10(32),11,13,15(20),16,18,23-undecaen-3-yl]acetic acid], the EC50 worked out at 11 nM.
